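Each compound was tested at five concentrations against cells in 96-well plates for 48 hours. Definition used: TGI = concentration required for complete inhibition of growth.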
Tests used:
Experiment in all cases: NCI tumour cell line growth inhibition, 48 h
[1] = test system: 786-0 renal
[2] = test system: A498 renal
[3] = test system: A549 NSCLC
[4] = test system: ACHN renal
[5] = test system: BT-549 breast
[6] = test system: CAKI-1 renal
[7] = test system: CCRF-CEM leukemia
[8] = test system: COLO 205 colon
[9] = test system: DLD-1 colon
[10] = test system: DMS 114 small cell lung
[11] = test system: DMS 273 small cell lung
[12] = test system: DU-145 prostate
[13] = test system: EKVX NSCLC
[14] = test system: HCC-2998 colon
[15] = test system: HCT-116 colon
[16] = test system: HCT-15 colon
[17] = test system: HL-60(TB) leukemia
[18] = test system: HOP-18 NSCLC
[19] = test system: HOP-62 NSCLC
[20] = test system: HOP-92 NSCLC
[21] = test system: HS 578T breast
[22] = test system: HT29 colon
[23] = test system: IGROV1 ovarian
[24] = test system: K-562 leukemia
[25] = test system: KM12 colon
[26] = test system: KM20L2 colon
[27] = test system: LOX IMVI melanoma
[28] = test system: LXFL 529 NSCLC
[29] = test system: M14 melanoma
[30] = test system: M19-MEL melanoma
[31] = test system: MALME-3M melanoma
[32] = test system: MDA-MB-231 breast
[33] = test system: MDA-MB-435
[34] = test system: MDA-N
[35] = test system: MOLT-4 leukemia
[36] = test system: NCI-H226 lung
[37] = test system: NCI-H23 lung
[38] = test system: NCI-H460 lung
[39] = test system: NCI-H522 lung
[40] = test system: NCI/ADR-RES ovarian
[41] = test system: OVCAR-3 ovarian
[42] = test system: OVCAR-4 ovarian
[43] = test system: OVCAR-5 ovarian
[44] = test system: OVCAR-8 ovarian
[45] = test system: PC-3 prostate
[46] = test system: RPMI-8226 leukemia
[47] = test system: RXF 393 renal
[48] = test system: RXF-631 renal
[49] = test system: SF-268 CNS
[50] = test system: SF-295 CNS
[51] = test system: SF-539 CNS
[52] = test system: SK-MEL-2 melanoma
[53] = test system: SK-MEL-28 melanoma
[54] = test system: SK-MEL-5 melanoma
[55] = test system: SK-OV-3 ovarian
[56] = test system: SN12C renal
[57] = test system: SNB-19 CNS
[58] = test system: SNB-75 CNS
[59] = test system: SNB-78 CNS
[60] = test system: SR leukemia
[61] = test system: SW-620 colon
[62] = test system: T-47D breast
[63] = test system: TK-10 renal
[64] = test system: U251 CNS
[65] = test system: UACC-257 melanoma
[66] = test system: UACC-62 melanoma
[67] = test system: UO-31 renal
[68] = test system: XF 498 CNS
[69] = test system: MCF7 breast

Nc1ccc(S(=O)(=O)Nc2cnc3ccccc3n2)cc1
TGI [1]: > 100 µM | TGI [2]: > 100 µM | TGI [3]: > 100 µM | TGI [4]: > 100 µM | TGI [5]: > 100 µM | TGI [6]: > 100 µM | TGI [7]: > 100 µM | TGI [8]: > 100 µM | TGI [9]: > 100 µM | TGI [10]: > 100 µM | TGI [11]: > 100 µM | TGI [12]: > 100 µM | TGI [13]: > 100 µM | TGI [14]: > 100 µM | TGI [15]: > 100 µM | TGI [16]: > 100 µM | TGI [17]: > 100 µM | TGI [18]: > 100 µM | TGI [19]: > 100 µM | TGI [20]: > 100 µM | TGI [21]: 35.3 µM | TGI [22]: > 100 µM | TGI [23]: > 100 µM | TGI [24]: > 100 µM | TGI [25]: > 100 µM | TGI [26]: > 100 µM | TGI [27]: > 100 µM | TGI [28]: > 100 µM | TGI [29]: > 100 µM | TGI [30]: > 100 µM | TGI [31]: > 100 µM | TGI [32]: > 100 µM | TGI [33]: > 100 µM | TGI [34]: > 100 µM | TGI [35]: > 100 µM | TGI [36]: > 100 µM | TGI [37]: > 100 µM | TGI [38]: > 100 µM | TGI [39]: > 100 µM | TGI [40]: > 100 µM | TGI [41]: > 100 µM | TGI [42]: > 100 µM | TGI [43]: > 100 µM | TGI [44]: > 100 µM | TGI [45]: > 100 µM | TGI [46]: > 100 µM | TGI [47]: > 100 µM | TGI [48]: > 100 µM | TGI [49]: > 100 µM | TGI [50]: > 100 µM | TGI [51]: > 100 µM | TGI [52]: > 100 µM | TGI [53]: > 100 µM | TGI [54]: > 100 µM | TGI [55]: > 100 µM | TGI [56]: > 100 µM | TGI [57]: > 100 µM | TGI [58]: > 100 µM | TGI [59]: > 100 µM | TGI [60]: > 100 µM | TGI [61]: > 100 µM | TGI [62]: > 100 µM | TGI [63]: > 100 µM | TGI [64]: > 100 µM | TGI [65]: > 100 µM | TGI [66]: > 100 µM | TGI [67]: > 100 µM | TGI [68]: > 100 µM

CCc1cccc(CC)c1NC(=O)C(C#N)C1=C(Cl)C(=O)c2ccccc2C1=O (stereo unspecified)
TGI [1]: 31 µM | TGI [2]: 36.5 µM | TGI [3]: 40.9 µM | TGI [4]: 30.5 µM | TGI [5]: 24.8 µM | TGI [6]: 24.7 µM | TGI [7]: 15.6 µM | TGI [8]: 49.1 µM | TGI [9]: 45.2 µM | TGI [10]: 65.4 µM | TGI [11]: 45.3 µM | TGI [12]: 30.5 µM | TGI [13]: 36 µM | TGI [14]: 31.2 µM | TGI [15]: 34 µM | TGI [16]: 42.9 µM | TGI [17]: 5.28 µM | TGI [18]: 28.9 µM | TGI [19]: 21.4 µM | TGI [20]: 8.89 µM | TGI [21]: 9.32 µM | TGI [22]: 39.7 µM | TGI [23]: 32 µM | TGI [24]: 14.1 µM | TGI [25]: 35.5 µM | TGI [26]: 43.8 µM | TGI [27]: 45.1 µM | TGI [28]: 30.1 µM | TGI [29]: 35.1 µM | TGI [30]: 47.2 µM | TGI [31]: 21 µM | TGI [69]: 34.5 µM | TGI [32]: 21.6 µM | TGI [33]: 27.9 µM | TGI [34]: 30.3 µM | TGI [35]: 20.3 µM | TGI [36]: 29.8 µM | TGI [37]: 24.3 µM | TGI [38]: 52 µM | TGI [39]: 23 µM | TGI [41]: 36.9 µM | TGI [42]: 31.6 µM | TGI [43]: 34.5 µM | TGI [44]: 57.1 µM | TGI [45]: 25.9 µM | TGI [46]: 23.4 µM | TGI [47]: 29.8 µM | TGI [48]: > 56.8 µM | TGI [49]: 36 µM | TGI [50]: 29.9 µM | TGI [51]: 25.6 µM | TGI [52]: 34.7 µM | TGI [53]: 41 µM | TGI [54]: 28.2 µM | TGI [55]: 42.4 µM | TGI [56]: 31.3 µM | TGI [57]: 44.4 µM | TGI [58]: 17.4 µM | TGI [59]: 40.8 µM | TGI [60]: > 28.9 µM | TGI [61]: 31.2 µM | TGI [62]: 18.1 µM | TGI [63]: 35.9 µM | TGI [64]: 33.7 µM | TGI [65]: 32.2 µM | TGI [66]: 31.7 µM | TGI [67]: 24.3 µM | TGI [68]: 29.4 µM
